Legend:
Type in all cases: cell-based, rat
[1] = system: RBL-2H3 cell-line transfected with the α-chain of the human high-affinity receptor for IgE; assay: Attenuation of antigen- or irritant-induced mediator release by antagonists; details: competing sugars; lectins of e.g. pollen or bacterial and viral agglutinins
Description: For example, where a composition was being tested or developed for its ability to attenuate an IgE mediated response such as asthma or hay fever, antigen specific IgE would be present, for example, in the form of human serum.
Following incubation, cells were washed (2×1 ml) with buffer A (120 mM NaC1, 5 mM KC1, 25 mM PIPES, 1 mM CaC12, 0.04 mM MgC12, 5.6 mM glucose, 0.1% BSA, pH7.4) and pre-incubated for a further period of 10 minutes at 37 degrees C. with buffer A (0.5 ml) which was removed before challenge with buffer A (0.4 ml) supplemented with a pre-selected antigen (in an amount as afore described) and the therapeutic composition or the antagonist.
(§1) For the determination of antigen induced [^3H]-5HT release, the well was incubated at 37 degrees C. for 15 minutes, cooled on ice, supernatant was then removed and spun at 2000 g (1 minute) before liquid scintillation counting (2 minutes). The percentage release of [^3H]-5HT was calculated by the method of Siraganian and Hook.

[2] = system: RBL-2H3 cell-line transfected with the α-chain of the human high-affinity receptor for IgE; assay: Irritant/antigen-induced mediator release in the absence of IgE sensitization; details: control, no sensitizing serum; same antigen concentrations
Description: Parent RBL-2H3 cells or clones transfected with the α-chain of the human high-affinity receptor complex were plated out in 24-well plates at 2×10^5 cells/well as described previously in the citations referred to on Page 2 of this application. For the determination of antigen-induced mediator release, plates were incubated at 37 degrees C. for 15 minutes, cooled on ice, the supernatant was removed, spun at […] (1 minute) before liquid scintillation counting to measure [^3H]-5-hydroxytryptamine (5-HT release. The ImmunoTech histamine enzyme immunoassay was used to quantify histamine release, and hydrolysis of toluene sulphonyl methyl ester was employed to monitor protease release (please see Wilson, A. P. M., Pullar, C. E., Camp, A. M., and Helm B. A., Human IgE Mediates Stimulus Secretion Coupling in Rat Basophilic Leukemia Cells Transfected with the Alpha Chain of the Human High-Affinity Receptor, European Journal of Immunology, 23:240-244, 1993, or alternatively, please see other references cited on Page 2 of this application). […]
For the determination of irritant or antigen induced [^3H]-5HT release, the well was incubated at 37 degrees C. for 15 minutes, cooled in ice, supernatant was then removed and spun at 2000 g (1 minute) before liquid scintillation counting (2 minutes). The percentage release of [^3H]-5HT was calculated by the method of Siraganian and Hook. […]

[3] = system: RBL-2H3 (H 2/2/C) transfectants; assay: Antigen-induced mediator release after sensitization with serum from a bee-venom-allergic individual; details: cells sensitized with serum (1:10) of bee venom sensitive individual (EC), increasing antigen concentrations
Description: Triggering of RBL-2H3 (H 2/2/C) transfectants following sensitization with serum from a bee-venom-allergic individual. Cells were incubated with the serum (1:10), Dex (10-^6M) and [^3H]-5HT. After washing and pre-incubation the cells were challenged with a range of concentrations of purified bee venom phospholipase A2 (PLA2). The percentage release of [^3H]-5HT (●) and β-hexosaminidase (∘) were determined; data were corrected for background and normalized with respect to values obtained for triggering with hIgE-DNP (1 μg/mL and NIP-HSA (100 ng/mL).
Transfected RBL-2H3 clones were incubated for 24 hours with or without serum (1:10 dilution) from a bee venom sensitive individual (EC) in the presence of 10-^6M dexamethazone and [^3H]-5-hydroxytryptamine. […]
[^3H]-5-Hydroxytyptamine was measured after a 15 minutes incubation period, release was corrected for background and expressed relative to the total [^3H]-5-hydroxytryptamine incorporated. […]
as §1, with “Hook (Manual of Clinical Immunology of the American Society for Microbiology Washington D.C., 1980 Page 808).” for “Hook.”

Compound | inhibition of triggering of mast cells and basophils by lectins [1] | other results
C[C@@H]1O[C@@H](O)[C@@H](O)[C@H](O)[C@@H]1O [a-L-fucose] | can inhibit the triggering of mast cells and basophils | –
bee venom phospholipase A2 | – | mediator release dose response in non-sensitized cells [2]: mediator release increased in response to antigen concentration; mediator release ([3H]-5HT, β-hexosaminidase) dose response in sensitized cells [3]: typical bell-shaped dose response pattern; mediator release ([3H]-5HT, β-hexosaminidase) dose response in sensitized cells ([3]; listed as bee venom PLA2): typical bell-shaped dose response curve
CC(=O)N[C@H]1[C@H]([C@H](O)[C@H](O)CO)OC(O)(C(=O)O)C[C@@H]1O (stereo partly drawn) [N-acetyl neuraminic acid] | can inhibit the triggering of mast cells and basophils | –
OC[C@H]1O[C@@H](O[C@H]2[C@H](O)[C@@H](O)C(O)O[C@@H]2CO)[C@H](O)[C@@H](O)[C@H]1O (stereo partly drawn) [lactose] | can inhibit the triggering of mast cells and basophils | –
OC[C@H]1O[C@@H](O)[C@H](O)[C@@H](O)[C@H]1O [b-D-galactose] | can inhibit the triggering of mast cells and basophils | –
CC(=O)N[C@H]1C(O)O[C@H](CO)[C@@H](O)[C@@H]1O (stereo partly drawn) [N-acetyl-D-glucosamin] | can inhibit the triggering of mast cells and basophils | –
CO[C@H]1O[C@H](CO)[C@@H](O)[C@H](O)[C@@H]1O [a-methyl-mannoside] | can inhibit the triggering of mast cells and basophils | –

From patent US6946260B2, “Allergen/inflammatory testing and diagnosis” (Euro/DPC Limited, priority 1992, dated 2005)
